Values joined by “and” are separate entries in the source; they are usually repeats but may differ in a detail not shown here. Equal values may be shown once.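 Cultured in 96-well plates, cells were exposed to test compound for 48 hours across five concentrations. At the GI50, growth is halved. TGI denotes the concentration required for complete inhibition of growth.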
Key:
Assay in all cases: NCI tumour cell line growth inhibition, 48 h
SNB-75 CNS = system: SNB-75 CNS
A549 NSCLC = system: A549 NSCLC
LOX IMVI melanoma = system: LOX IMVI melanoma
MDA-N = system: MDA-N
TK-10 renal = system: TK-10 renal
XF 498 CNS = system: XF 498 CNS
HCT-15 colon = system: HCT-15 colon
DLD-1 colon = system: DLD-1 colon
DMS 273 small cell lung = system: DMS 273 small cell lung
NCI-H23 lung = system: NCI-H23 lung
UACC-62 melanoma = system: UACC-62 melanoma
SK-MEL-2 melanoma = system: SK-MEL-2 melanoma
SK-MEL-5 melanoma = system: SK-MEL-5 melanoma
SNB-19 CNS = system: SNB-19 CNS
HOP-92 NSCLC = system: HOP-92 NSCLC
HT29 colon = system: HT29 colon
EKVX NSCLC = system: EKVX NSCLC
SF-268 CNS = system: SF-268 CNS
SN12K1 renal = system: SN12K1 renal
MCF7 breast = system: MCF7 breast
786-0 renal = system: 786-0 renal
IGROV1 ovarian = system: IGROV1 ovarian
NCI-H522 lung = system: NCI-H522 lung
A498 renal = system: A498 renal
CAKI-1 renal = system: CAKI-1 renal
T-47D breast = system: T-47D breast
HCT-116 colon = system: HCT-116 colon
M14 melanoma = system: M14 melanoma
ACHN renal = system: ACHN renal
NCI-H226 lung = system: NCI-H226 lung
DU-145 prostate = system: DU-145 prostate
SNB-78 CNS = system: SNB-78 CNS
SN12C renal = system: SN12C renal
K-562 leukemia = system: K-562 leukemia
BT-549 breast = system: BT-549 breast
HOP-62 NSCLC = system: HOP-62 NSCLC
OVCAR-3 ovarian = system: OVCAR-3 ovarian
KM12 colon = system: KM12 colon
RPMI-8226 leukemia = system: RPMI-8226 leukemia
MOLT-4 leukemia = system: MOLT-4 leukemia
HOP-18 NSCLC = system: HOP-18 NSCLC
CCRF-CEM leukemia = system: CCRF-CEM leukemia
P388 leukemia = system: P388 leukemia
OVCAR-4 ovarian = system: OVCAR-4 ovarian
P388/ADR leukemia = system: P388/ADR leukemia
MALME-3M melanoma = system: MALME-3M melanoma
SF-539 CNS = system: SF-539 CNS
SF-295 CNS = system: SF-295 CNS
SK-MEL-28 melanoma = system: SK-MEL-28 melanoma
NCI-H460 lung = system: NCI-H460 lung
U251 CNS = system: U251 CNS
MDA-MB-231 breast = system: MDA-MB-231 breast
NCI/ADR-RES ovarian = system: NCI/ADR-RES ovarian
RXF 393 renal = system: RXF 393 renal

With COc1ccc2c(c1)c1c(C)c3cnccc3c(C)c1n2CCCN the GI50 (SNB-75 CNS) was 64 nM, the TGI (SNB-75 CNS) was 791 nM and 206 nM and the GI50 (A549 NSCLC) was 18.6 nM. The TGI (LOX IMVI melanoma) was 241 nM, the TGI (MDA-N) was 306 nM and the TGI (TK-10 renal) was 2750 nM. The TGI (XF 498 CNS) was 942 nM, the GI50 (HCT-15 colon) was 62.4 nM and the TGI (HCT-15 colon) was 473 nM and 955 nM. The TGI (DLD-1 colon) was 741 nM, the TGI (DMS 273 small cell lung) was 382 nM and the TGI (NCI-H23 lung) was 601 nM. The GI50 (UACC-62 melanoma) was 263 nM, the TGI (UACC-62 melanoma) was 950 nM and 778 nM and the GI50 (SK-MEL-2 melanoma) was 193 nM. The TGI (SK-MEL-2 melanoma) was 815 nM and 393 nM, the GI50 (SK-MEL-5 melanoma) was 282 nM and the TGI (SK-MEL-5 melanoma) was 746 nM and 1060 nM. The GI50 (SNB-19 CNS) was 33.7 nM, the TGI (SNB-19 CNS) was 1440 nM and 512 nM and the GI50 (HOP-92 NSCLC) was 352 nM. For the same compound, the TGI (HOP-92 NSCLC) was 739 nM and 1130 nM, the GI50 (HT29 colon) was under 11.4 nM and the TGI (HT29 colon) was 734 nM and 182 nM. For the same compound, the GI50 (EKVX NSCLC) was 106 nM, the TGI (EKVX NSCLC) was 771 nM and 405 nM and the GI50 (SF-268 CNS) was 63.3 nM and 57.7 nM. For the same compound, the TGI (SF-268 CNS) was 204 nM and 425 nM, the TGI (SN12K1 renal) was 239 nM and the GI50 (MCF7 breast) was 16.2 nM. The TGI (MCF7 breast) was 663 nM and 108 nM, the TGI (786-0 renal) was 634 nM and the GI50 (IGROV1 ovarian) was 136 nM. For the same compound, the TGI (IGROV1 ovarian) was 1320 nM and 1180 nM, the GI50 (NCI-H522 lung) was 85.3 nM and the TGI (NCI-H522 lung) was 763 nM and 242 nM. The GI50 (A498 renal) was 317 nM, the TGI (A498 renal) was 856 nM and 885 nM and the GI50 (CAKI-1 renal) was 130 nM and 164 nM. The TGI (CAKI-1 renal) was 491 nM and 806 nM, the TGI (T-47D breast) was 760 nM and the GI50 (HCT-116 colon) was 65.9 nM. The TGI (HCT-116 colon) was 303 nM and 1060 nM, the TGI (M14 melanoma) was 330 nM and the TGI (ACHN renal) was 695 nM. For the same compound, the GI50 (NCI-H226 lung) was 558 nM and 416 nM, the TGI (NCI-H226 lung) was 1300 nM and 1600 nM and the TGI (DU-145 prostate) was 389 nM. For the same compound, the TGI (SNB-78 CNS) was 653 nM, the GI50 (SN12C renal) was 170 nM and the TGI (SN12C renal) was 916 nM and 1010 nM. For the same compound, the GI50 (K-562 leukemia) was 71.2 nM and 13.9 nM, the TGI (K-562 leukemia) was 637 nM and 382 nM and the TGI (BT-549 breast) was 2600 nM. For the same compound, the GI50 (HOP-62 NSCLC) was 18.7 nM, the TGI (HOP-62 NSCLC) was 984 nM and 279 nM and the GI50 (OVCAR-3 ovarian) was 119 nM. For the same compound, the TGI (OVCAR-3 ovarian) was 1180 nM and 495 nM, the GI50 (KM12 colon) was 79.8 nM and 29.8 nM and the TGI (KM12 colon) was 483 nM and 213 nM. The GI50 (RPMI-8226 leukemia) was 93.1 nM and 89.4 nM, the TGI (RPMI-8226 leukemia) was 443 nM and 555 nM and the TGI (MOLT-4 leukemia) was 578 nM and 139 nM. The TGI (HOP-18 NSCLC) was 1550 nM, the GI50 (CCRF-CEM leukemia) was 47.2 nM and < 10 nM and the TGI (P388 leukemia) was 98.7 nM. For the same compound, the GI50 (OVCAR-4 ovarian) was 16.1 nM, the TGI (OVCAR-4 ovarian) was 394 nM and 143 nM and the TGI (P388/ADR leukemia) was 725 nM. The GI50 (MALME-3M melanoma) was 225 nM, the TGI (MALME-3M melanoma) was 1420 nM and 609 nM and the GI50 (SF-539 CNS) was 175 nM. For the same compound, the TGI (SF-539 CNS) was 855 nM and 421 nM, the GI50 (SF-295 CNS) was 147 nM and the TGI (SF-295 CNS) was 621 nM and 1000 nM. The TGI (SK-MEL-28 melanoma) was 892 nM and 1100 nM, the GI50 (NCI-H460 lung) was 19.9 nM and the TGI (NCI-H460 lung) was 282 nM and 135 nM. The GI50 (U251 CNS) was 171 nM and 34 nM, the TGI (U251 CNS) was 721 nM and 383 nM and the TGI (MDA-MB-231 breast) was 381 nM. For the same compound, the GI50 (NCI/ADR-RES ovarian) was 217 nM, the TGI (NCI/ADR-RES ovarian) was 696 nM and 759 nM and the GI50 (RXF 393 renal) was 145 nM. The TGI (RXF 393 renal) was 168 nM and 307 nM.

Reference: PubChem BioAssay (NCI)
